According to US10321683B2, “Insecticidal, miticidal, nematicidal, molluscicidal, microbicidal, or bactericidal composition and method for controlling pest” (NISSAN CHEMICAL INDUSTRIES, LTD., priority 2014, dated 2019):

How the values were obtained:
[1] = tested on: third instar larvae of common cutworms; experiment: Efficacy test for common cutworm (cabbage leaf dip); assay type: in vivo, Common cutworm (Spodoptera litura); details: six days after the treatment
Method: Each of Compound (1) or Compound (2) and the compounds listed in Table 1 was formulated into a 10% emulsifiable concentrate (some compound was formulated into a 25% wettable powder). The formulations were diluted with water containing a spreading agent to prepare chemical solutions of given concentrations. Cabbage leaves were dipped in the chemical solutions for 10 seconds. The dipped cabbage leaves were transferred on filter papers placed in 7 cm petri dishes with one leaf per one petri dish, and the leaves were air dried. After the air drying was completed, the seven third instar larvae of common cutworms were placed in each petri dish and then the petri dishes were placed in an incubator at 25° C. Six days after the treatment, the numbers of dead larvae were checked, and the percentages of dead insects were calculated according to the calculating equation below. Note that the tests were conducted in duplicate. The percentage of dead insects (%)=the number of dead insects/the number of tested insects×100
(§1) To each concentration of chemical solutions, the synergistic effect was calculated from the percentage of dead insects by using Colby's method (Colby S. R. 1976, Weeds 15, 20-22). The calculation method was as follows. E=X+Y−XY/100
(§2) X: an observed value at an x concentration of Chemical A (the percentage of dead insects)
(§3) Y: an observed value at a y concentration of Chemical B (the percentage of dead insects)
(§4) E: the percentage of dead insects expected at the time of a mixed treatment with Chemical A and Chemical B.
(§5) If the observed value was larger than the expected value, there was a synergistic effect; if the expected value was larger than the observed value, there was an antagonist effect; and if the observed value and the expected value were same, there was an additive effect.

[2] = tested on: Western flower thrips larva; experiment: Efficacy test for Western flower thrips larva (leaf disk spray); assay type: in vivo, Western flower thrips (Frankliniella occidentalis); details: 1 day after spraying
Method: A styrol cup (having the diameter of the lid of 7.5 cm, and the height of 4 cm) was filled with tap water, and a lid having a hole in its center was placed on the styrol cup, and a leaf disk (having the diameter of 1.7 cm) made of a common bean leaf was placed on the lid. Suitable amounts of eggs of Western flower thrips were placed on the leaf disk, and were controlled in a thermostatic chamber for 24 hours to be hatched. Each of Compound (1) or Compound (2) and the compounds listed in Table 1 was formulated into a 10% emulsifiable concentrate. The formulations were diluted with water to prepare chemical solutions of given concentrations. Each of the test containers was treated with a spray solution as was uniformly sprayed by using a spraying apparatus (2.5 ml/cup). Examinations were conducted 1 day after spraying, and the percentages of dead insects were calculated according to the calculating equation below. Note that the tests were conducted in duplicate. The percentage of dead insects (%)=the number of dead insects/the number of tested insects×100
as §1, §2, §3, §4, §5

varroa mites = experiment: Efficacy test for varroa mite (coated screw bottle); assay type: in vivo; details: 100 μg/tube; 24 hours after placing
Method: The Compound (1) or Compound (2) was adjusted to a given concentration with acetone. After the adjustment, 300 μl of each of the prepared solutions was poured into a 20 ml screw bottle. The solvent was volatilized as the inner surface of the bottle was uniformly coated with the solution, and then the bottle was stored in a cool and dark place overnight. To obtain varroa mites, a blood comb was taken out from a beehive of honey bees on the day before placing of mites, and pupae having varroa mites were taken and placed in a petri dish. The petri dish was stored in an incubator at 34° C. overnight under the total darkness condition, and then only surviving varroa mites were collected. The collected varroa mites were placed in each of the screw bottles that were treated with the above-described chemicals, and the screw bottles were closed with caps. After three hours, the pupae of honey bees were placed in the screw bottles; the screw bottles were closed with caps again, and were stored in an incubator at 34° C. under the total darkness condition. The number of dead insects 24 hours after placing was checked, and the percentages of dead insects were calculated according to the calculating equation below. Note that the tests were conducted in quadruplicate of three in one plot. The percentage of dead insects (%)=the number of dead insects/the number of tested insects×100

[3] = tested on: fourth instar larvae of cotton bollworms; experiment: Efficacy test for cotton bollworm (cabbage leaf dip); assay type: in vivo, Cotton bollworm (Helicoverpa armigera); details: six days after the treatment
Method: Each of Compound (1) or Compound (2) and the compounds listed in Table 1 was formulated into a 10% emulsifiable concentrate (some compound was formulated into a 25% wettable powder). The formulations were diluted with water containing a spreading agent to prepare chemical solutions of given concentrations. Cabbage leaves were dipped in the chemical solutions for 10 seconds. The dipped cabbage leaves were transferred on filter papers placed in 7 cm petri dishes with one leaf per one petri dish, and the leaves were air dried. After the air drying was completed, the seven fourth instar larvae of cotton bollworms were placed in each petri dish, and then, the petri dishes were placed in an incubator at 25° C. Six days after the treatment, the numbers of dead larvae were checked, and the percentages of dead insects were calculated according to the calculating equation below. Note that the tests were conducted in duplicate. The percentage of dead insects (%)=the number of dead insects/the number of tested insects×100
as §1, §2, §3, §4, §5

[4] = tested on: sweetpotato whitefly adult insects; experiment: Efficacy test for sweetpotato whitefly biotype B (leaf disk spray); assay type: in vivo, Sweetpotato whitefly (Bemisia tabaci) biotype B; details: 5 days after spraying
Method: Each of Compound (1) or Compound (2) and the compounds listed in Table 1 was formulated into a 10% emulsifiable concentrate. The formulations were diluted with water to prepare chemical solutions of given concentrations. A styrol cup (having the diameter of the lid of 7.5 cm, and the height of 4 cm) was filled with tap water, and a lid having a hole in its center was placed on the styrol cup, and a filter paper was placed on the lid to absorb tap water. An absorbent cotton (5 cm×5 cm) wetted with tap water was placed on the filter paper, and a leaf disk (having the diameter of 3 cm) made of a common bean leaf was placed on the absorbent cotton. Each of the test containers was treated with a spray solution as was uniformly sprayed by using a spraying apparatus (2.5 ml/cup). The 20 sweetpotato whitefly adult insects were placed on the leaf disk, and a mesh lid was placed over the container to prevent escape of the insects. Examinations were conducted 5 days after spraying, and the percentages of dead insects were calculated according to the calculating equation below. Note that the tests were conducted in duplicate. The percentage of dead insects (%)=the number of dead insects/the number of tested insects×100 To each concentration of chemical solutions, the synergistic effect was calculated from the percentage of dead insects by using Colby's method (Colby S. R. […], Weeds 15, 20-22). […]

[5] = tested on: melon thrips female adult insects; experiment: Efficacy test for melon thrips female adult insect (leaf disk spray); assay type: in vivo, Melon thrips (Thrips palmi); details: 2 days after spraying
Method: Each of Compound (1) or Compound (2) and the compounds listed in Table 1 was formulated into a 10% emulsifiable concentrate. The formulations were diluted with water to prepare chemical solutions of given concentrations. A styrol cup (having the diameter of the lid of 7.5 cm, and the height of 4 cm) was filled with tap water, and a lid having a hole in its center was placed on the styrol cup, and a filter paper was placed on the lid to absorb tap water. An absorbent cotton (5 cm×5 cm) wetted with tap water was placed on the filter paper, and a leaf disk (having the diameter of 1.7 cm) made of a cucumber leaf was placed on the absorbent cotton. The ten melon thrips female adult insects were placed on the leaf disk. Each of the test containers was treated with a spray solution as was uniformly sprayed by using a spraying apparatus (2.5 ml/cup). Examinations were conducted 2 days after spraying, and the percentages of dead insects were calculated according to the calculating equation below. Note that the tests were conducted in duplicate. The percentage of dead insects (%)=the number of dead insects/the number of tested insects×100
To each concentration of chemical solutions, the synergistic effect was calculated from the percentage of dead insects by using Colby's method (Colby S. R. 1976, Weeds 15, 20-22). The calculation method was as follows. E=X+Y−XY/100 […]

Molecule: N#Cc1ccc(CC(=NNC(=O)Nc2ccc(OC(F)(F)F)cc2)c2cccc(C(F)(F)F)c2)cc1 (mixture of isomers) [Compound dc, metaflumizone, reference compound]
- Percentage of Dead Insect (%) Observed Value ([1]; Table 6, 1.7 ppm): 53.8%

Molecule: Cc1c(COC(=O)[C@@H]2[C@H](/C=C(\Cl)C(F)(F)F)C2(C)C)cccc1-c1ccccc1 (racemic) [Compound q, bifenthrin]
- Percentage of Dead Insect (%) Observed Value ([2]; 20 ppm): 8.5%

Molecule: Cc1cc(C2=NOC(c3cc(Cl)cc(Cl)c3)(C(F)(F)F)C2)ccc1C(=O)NCC(=O)NCC(F)(F)F (stereo not drawn) [Compound (1), 4-[5-(3,5-dichlorophenyl)-4,5-dihydro-5-(trifluoromethyl)isoxazole-3-yl]-2-methyl-N-[2-oxo-2-[(2,2,2-trifluoroethyl)amino]ethyl]benzamide]
- Percentage of Dead Insect (%) Observed Value ([1]; 0.017 ppm): 28.6%
- Percentage of Dead Insect (%) (varroa mites): 100%
- Percentage of Dead Insect (%) Observed Value ([3]; 0.125 ppm): 28.6%

Molecule: CO/N=C\NC(=O)c1ccc(C2=NOC(c3cc(Cl)cc(Cl)c3)(C(F)(F)F)C2)cc1C (stereo not drawn) [Compound (2), (Z)-4-[5-(3,5-dichlorophenyl)-5-trifluoromethyl-4,5-dihydroisoxazole-3-yl]-N-(methoxyiminomethyl)-2-methylbenzamide]
- Percentage of Dead Insect (%) Observed Value ([2]; 1 ppm): 29.5%
- Percentage of Dead Insect (%) Observed Value ([1]; 0.017 ppm): 35.7%
- Percentage of Dead Insect (%) Observed Value ([1]; Table 4, 0.025 ppm): 35.7%
- Percentage of Dead Insect (%) Observed Value ([1]; Table 5, 0.025 ppm): 35.7%
- Percentage of Dead Insect (%) Observed Value ([1]; Table 6, 0.025 ppm): 35.7%
- Percentage of Dead Insect (%) Observed Value ([1]; Table 7, 0.005 ppm): 14.3%
- Percentage of Dead Insect (%) Observed Value ([1]; Table 8, 0.005 ppm): 14.3%
- Percentage of Dead Insect (%) Observed Value ([4]; 5 ppm): 36.6%
- Percentage of Dead Insect (%) Observed Value ([5]; 5 ppm): 42.1%
- Percentage of Dead Insect (%) (varroa mites): 100%
- Percentage of Dead Insect (%) Observed Value ([3]; 0.125 ppm): 35.7%

Molecule: CNC(=O)c1cc(Cl)cc(C)c1NC(=O)c1cc(Br)nn1-c1ncccc1Cl [Compound aa, chlorantraniliprole, reference compound]
- Percentage of Dead Insect (%) Observed Value ([1]; 0.083 ppm): 21.4%

Molecule: CNC(=O)c1cc(C#N)cc(C)c1NC(=O)c1cc(Br)nn1-c1ncccc1Cl [Compound al, cyantraniliprole, reference compound]
- Percentage of Dead Insect (%) Observed Value ([3]; 0.25 ppm): 42.9%

Molecule: CC(NC(=O)c1cc(Cl)cc(Br)c1NC(=O)c1cc(Br)nn1-c1ncccc1Cl)C1CC1 (stereo not drawn) [Compound am, cyclaniliprole, reference compound]
- Percentage of Dead Insect (%) Observed Value ([1]; Table 7, 0.17 ppm): 7.7%

Molecule: CC1(C)[C@H](C(=O)O[C@H](C#N)c2cccc(Oc3ccccc3)c2)[C@@H]1/C=C(\Cl)C(F)(F)F [Compound ar, gamma-cyhalothrin, reference compound]
- Percentage of Dead Insect (%) Observed Value ([1]; 0.5 ppm): 35.7%

Molecule: CCc1nc2cc(C)c(Oc3ccc(OC(F)(F)F)cc3)cc2c(OC(=O)OC)c1C [Compound bx, flometoquin, reference compound]
- Percentage of Dead Insect (%) Observed Value ([5]; 2.5 ppm): 52.6%

Molecule: Cc1cc(C(F)(C(F)(F)F)C(F)(F)F)ccc1NC(=O)c1cccc(I)c1C(=O)NC(C)(C)CS(C)(=O)=O [Compound ca, flubendiamide, reference compound]
- Percentage of Dead Insect (%) Observed Value ([3]; 0.025 ppm): 35.7%

Molecule: O=C(NC(=O)c1c(F)cccc1F)Nc1ccc(Oc2ccc(C(F)(F)F)cc2Cl)cc1F [Compound ce, flufenoxuron]
- Percentage of Dead Insect (%) Observed Value ([2]; 20 ppm): 27.2%

Molecule: O=C1C=C(N(Cc2ccc(Cl)nc2)CC(F)F)CO1 [Compound ci, flupyradifurone, reference compound]
- Percentage of Dead Insect (%) Observed Value ([4]; 25 ppm): 40.5%

Molecule: spinetoram [Compound el, reference compound]
- Percentage of Dead Insect (%) Observed Value ([1]; Table 5, 4.4 ppm): 78.6%

Molecule: spinosad [Compound em, reference compound]
- Percentage of Dead Insect (%) Observed Value ([1]; Table 4, 32 ppm): 60.0%

Molecule: tetraniliprole [Compound ey, reference compound]
- Percentage of Dead Insect (%) Observed Value ([1]; Table 8, 1.7 ppm): 64.3%
